Here are results for 79 compounds from paper PMC12040169 (PLOS Biology, 2025).

As usually defined, the viability is a read-out of living cells in per cent, often relative to untreated cells.

The nature of the data set: in vitro. The settings on record: human, hela cells, % viability.

For the compound `CCn1c2ccccc2c2cc(Nc3cc(-c4cccc5ccccc45)ncn3)ccc21` [CBK090834], the viability at 28.5 h, 10 µM amounted to 50.6%. In the case of `COc1ccc(CCOC(=O)Nc2cn(C)nc2C(F)(F)F)cc1OC` [CBK021070], the viability at 28.5 h, 10 µM was 105%. Take `CC(C)(CO)CNc1cncc(-c2cccc(Cl)c2)n1` [CBK037862]: the viability at 28.5 h, 10 µM came out at 102%.

`CCOC(=O)N1CCN(Cc2ccc(O)c(OC)c2)CC1` [CBK261873]: the viability at 28.5 h, 10 µM amounted to 98.5%. Turning to `CC(C)Nc1nccnc1Sc1cccc(C(=O)O)c1` [CBK093581], the viability at 28.5 h, 10 µM was found to be 96.6%.

On to `c1ccc(CCNc2c3c(nc4ccccc24)CCC3)cc1` [CBK263693C], for which the viability at 28.5 h, 10 µM came to 92.2%. Same read-out and setting: in the case of `CN(Cc1ccc(Cl)c(F)c1)C(=O)c1cn[nH]c1C1CCCCN1` (stereo not shown) [CBK304742] it was 103%; in that of `C[C@H](NC(=O)OC(C)(C)C)C(=O)NC[C@H]1CC[C@H](C(=O)O)CC1` [CBK286741], 98.7%; in that of `Cc1nc(CN2CCCC3(CCN(C(=O)c4cc(F)c(F)cc4F)C3)C2)cs1` (stereo not shown) [CBK132026], 119%. On the same count and under the same terms, in the case of `O=C(O)c1cccc(S(=O)(=O)Nc2nc3ccccc3s2)c1` [CBK161138] it was 102%; in that of `CCCC(=O)N1CCCCC1c1nn(C)cc1-c1onc(C)c1C` (stereo not shown) [CBK283409], 80.5%; in that of `CCCc1oc(C(=O)O)cc1CN(CC)CC` [CBK267943C], 92.1%. For `Cc1ccc(C(F)(F)F)cc1NS(=O)(=O)c1cc(OC2CCNCC2)c2occc2c1` [CBK082763C], the viability at 28.5 h, 10 µM was determined as 90.1%. For the compound `CCn1c2ccccc2c2cc(CN3CCN(Cc4cc(OC)cc(OC)c4)CC3)ccc21` [CBK263164], the viability at 28.5 h, 10 µM was 95.9%. Take `Cc1ccc2c(c1)C1(CCN(C/C=C\c3ccccc3)CC1)NC(=O)C2` [CBK040216]: the viability at 28.5 h, 10 µM is 94.1%. Same read-out and setting: as for `CCNC(=O)N1CC2(CCN(CCOc3ccc(OC)cc3)CC2)c2ccccc21` [CBK144600T], the figure is 98.4%; as for `CC(C)c1ccc(N2C(=O)[C@@H]3C[C@@H](NC(=O)c4ccnc(Cl)c4)CCN3C2=O)cc1` [CBK289544], 102%. The same measure, in the same setting: as for `COc1cc(OC)c(NS(=O)(=O)c2ccc(C(=O)O)cc2)cc1Cl` [CBK296620], the figure is 97.5%; as for `Cn1nccc1CNCc1cc(Br)ccc1Cl` [CBK305100], 88.3%. On the same count and under the same terms, as for `O=C1Cc2ccccc2C2(CCN(C(=O)NCc3cccc(F)c3)CC2)N1` [CBK047288], the figure is 81%. Turning to `O=C(Oc1ccc(-c2cnc3ccccc3n2)cc1)c1ccc(S(=O)(=O)N2CCCCC2)cc1` [CBK267812], the viability at 28.5 h, 10 µM was determined as 93.7%. In the case of `CC(=O)NCc1cccc(-c2cc(C(=O)Nc3ccc4c(c3)OCCO4)cnc2O)c1` [CBK149871T], the viability at 28.5 h, 10 µM turned out to be 91.6%. Consider `Cc1ccc(SCCNC(=O)C(C)Sc2ccc(Cl)cc2)cc1` (stereo not shown) [CBK264104], for which the viability at 28.5 h, 10 µM was determined as 93.5%. Same read-out and setting: in the case of `O=C(Nc1nnn[nH]1)C12CC3CC(CC(C3)C1)C2` [CBK262276] it was 82.4%. On the same count and under the same terms, as for `N#Cc1ccc(NCc2ccccc2CN2CCCC2CO)nc1` (stereo not shown) [CBK304055], the figure is 95.8%; as for `COC(=O)c1c(NC(=O)C(Sc2ccccc2)c2ccccc2)sc2c1CCC(C(C)(C)C)C2` (stereo not shown) [CBK262603], 105%. The same measure, in the same setting: as for `Cc1cc(C)n2c(Nc3ccc(S(N)(=O)=O)cc3)nnc2n1` [CBK267601], the figure is 110%; as for `Cn1ccnc1C(NC(=O)N1CCCCC1)c1ccc(F)c(F)c1` (stereo not shown) [CBK283832], 107%; as for `Cc1ccccc1OCc1nn2c(C)nnc2s1` [CBK269220], 100%. Consider `COc1cc(NC(=O)Cn2cnc3c2c(=O)n(C)c(=O)n3C)c(OC)cc1Cl` [CBK133231], for which the viability at 28.5 h, 10 µM came out at 99.2%. Still for that read-out and setting: in the case of `O=[N+]([O-])c1ccc(NCCCNS(=O)(=O)c2ccc(Cl)cc2)c(Cl)c1` [CBK262543] it was 90.6%. The same measure, in the same setting: as for `CN(C)S(=O)(=O)N(CC(=O)Nc1cccnc1)c1ccccc1` [CBK267958], the figure is 119%. On the same count and under the same terms, in the case of `COc1cccc2ncn(CCc3n[nH]c(N)n3)c(=O)c12` [CBK307301] it was 90.8%. Turning to `N=C1NC(=O)/C(=C/c2cccc(OCCOc3ccc(C4CCCCC4)cc3)c2)S1` [CBK263956], the viability at 28.5 h, 10 µM is 87.6%. For `CCCC(=O)N1CCCCC1c1nn(C)cc1-c1cc(C)no1` (stereo not shown) [CBK283407], the viability at 28.5 h, 10 µM turned out to be 106%. Same read-out and setting: as for `Cc1ccc2nc(SCc3cccc([N+](=O)[O-])c3)nc(C)c2c1` [CBK264370], the figure is 106%; as for `NNC(=O)CN(CCc1ccccc1)S(=O)(=O)c1ccc(Cl)cc1` [CBK263754], 86.2%. On the same count and under the same terms, in the case of `CNS(=O)(=O)c1ccc(NC(=O)c2cc(-c3cccnc3)nc3ccc(Br)cc23)cc1` [CBK267776] it was 95.5%. `O=C(NC(=O)N1CCC2(C1)NCCc1c2[nH]c2ccccc12)c1ccccc1` (stereo not shown) [CBK046985]: the viability at 28.5 h, 10 µM was found to be 94.2%. With `COc1ccccc1CC(=N)NOC(=O)COc1cccc2ccccc12` [CBK263012], the viability at 28.5 h, 10 µM was determined as 94.2%. The same measure, in the same setting: as for `COc1ccc2c(c1)CCN(C(=O)C1CCc3nn(C)c(=O)n3C1)C2` (stereo not shown) [CBK307613], the figure is 93.3%. As for `O=C(CN1CCOCC1)NCCNc1c(Cl)c(Cl)c(Cl)c(Cl)c1Cl` [CBK266851], the viability at 28.5 h, 10 µM came to 84.7%.

For `CC(C)(C)c1ccc(/C=C/C(=O)n2cccn2)cc1` [CBK263645], the viability at 28.5 h, 10 µM is 85.7%.

With `O=C(NCc1cccc(C(F)(F)F)c1)c1cnoc1-c1ccc(Br)cc1` [CBK153718], the viability at 28.5 h, 10 µM came to 96.9%. On the same count and under the same terms, in the case of `CCOC(=O)c1cnc(SC)nc1NCCc1c[nH]c2cc(F)ccc12` [CBK092315] it was 96%. Consider `Cc1ccc(OCCn2c(=N)n(CCN3CCOCC3)c3ccccc32)cc1` [CBK269085B], for which the viability at 28.5 h, 10 µM was determined as 97.9%. Still for that read-out and setting: in the case of `Cc1ccc(CSc2nnc(-c3ccc(NC(=O)/C=C/c4ccccc4)cc3)n2C)cc1` [CBK263850] it was 90.4%. Turning to `CN(CCc1ccccn1)C(=O)C1CN(C(=O)C2CC23CCC3)C1` (stereo not shown) [CBK281969], the viability at 28.5 h, 10 µM worked out at 104%. Same read-out and setting: as for `O=c1[nH]c2ncc(-c3cccc4ncccc34)nc2n1Cc1ccccc1` [CBK064245], the figure is 89.4%; as for `Cc1cc(C(=O)NCc2ccccc2)n[nH]1` [CBK200198], 95.7%; as for `O=C(O)CCNS(=O)(=O)c1cccc(F)c1` [CBK267264], 115%.

For the compound `CCCNC(=O)CN1C(=O)N2CCCN=C2c2ccccc21` [CBK284405], the viability at 28.5 h, 10 µM amounted to 86%. In the case of `O=C(C1CC1)N1CCCc2cc(C(O)CN3CCCCC3)ccc21` (stereo not shown) [CBK282135], the viability at 28.5 h, 10 µM was 99.5%.

On to `OC(c1cccs1)C1CCN(Cc2ccc(-n3cncn3)cc2)CC1` (stereo not shown) [CBK306523], for which the viability at 28.5 h, 10 µM came to 97.8%. For the compound `CCC(CO)Nc1cncc(-c2cccc(F)c2)n1` (stereo not shown) [CBK065752], the viability at 28.5 h, 10 µM is 96.1%.

As to `O=C(c1n[nH]c2c1CCCC2)N1CC(=O)N(CCc2ccccc2)C(=O)C1` [CBK288110], the viability at 28.5 h, 10 µM was determined as 98.3%. As to `CCOC(=O)C1(c2ccccc2)CCN(C(=O)Cc2nnn[nH]2)CC1` [CBK132182], the viability at 28.5 h, 10 µM (bulk resorufin, single well) was 94.6%. For the compound `O=C(NC(c1ccc(-c2ccccc2)cc1)c1cnccn1)C1CCN(CCOc2ccc3ccccc3c2)CC1` (stereo not shown) [CBK147982], the viability at 28.5 h, 10 µM came out at 93.6%.

Turning to `Cc1nnc([C@H]2CCN(Cc3ccccc3)C2)o1` [CBK289390], the viability at 28.5 h, 10 µM was 114%.

In the case of `CCC(=O)N[C@H]1CC[C@@]2(Cc3ccc(OC)cc3)CCN(C)[C@H]2C1` [CBK024126], the viability at 28.5 h, 10 µM worked out at 98.9%. With `O=C(c1ccco1)N1CCN(C(=O)C(c2ccccc2)c2ccccc2)CC1` [CBK144462], the viability at 28.5 h, 10 µM stood at 88.9%. On to `CN(c1ncccc1CNC(=O)c1c[nH]c(=O)c(Cl)c1)C1CCCCC1` [CBK307267], for which the viability at 28.5 h, 10 µM is 92.6%. For the compound `CC(NC(=O)/C(=C\c1ccc(Cl)cc1)NC(=O)c1ccccc1Br)C(=O)O` (stereo not shown) [CBK264582], the viability at 28.5 h, 10 µM came to 91.4%. The same measure, in the same setting: in the case of `O=C(NCc1ccc(CO)cc1)[C@@H]1CN(Cc2ccccc2)C[C@H]1C(=O)c1ccc(F)cc1` [CBK286430] it was 97.8%; in that of `COc1ccc(N2CCN(c3cc(-c4ccc(CCC(=O)O)cc4)ncn3)CC2)cc1OC` [CBK091030], 94.1%. Still for that read-out and setting: as for `CC[C@H]1CN(S(=O)(=O)c2ccccc2)CC[C@H]1CC(=O)N(C)CC#N` [CBK289140], the figure is 108%; as for `O=C(O)CCN1CCN(S(=O)(=O)c2ccccc2)CC1` [CBK269402], 106%.

`COc1ccc(SCC(=O)O)cc1` [CBK111455]: the viability at 28.5 h, 10 µM turned out to be 93.7%. Still for that read-out and setting: as for `COC(=O)C(CCSC)NC(=O)c1ccc(C(F)(F)F)cc1` (stereo not shown) [CBK057452], the figure is 91.9%; as for `Fc1cccc(Cl)c1CNc1ccc(CNc2ncn[nH]2)cc1` [CBK267245], 93.1%; as for `N#Cc1nc(COc2cccc(Cl)c2)oc1NCc1ccncc1` [CBK266447], 95.7%. As for `C=C(C)CN1CCN(C(C(=O)O)c2c[nH]c3cc(F)ccc23)CC1` (stereo not shown) [CBK286835], the viability at 28.5 h, 10 µM is 106%. Regarding `CC(=O)N1CCc2cc(C(=O)CN3CCC(c4ccccc4)C3)ccc21` (stereo not shown) [CBK282931], the viability at 28.5 h, 10 µM came to 98%. Turning to `CCC1CC(C(F)(F)F)n2ncc(C(=O)O)c2N1` (stereo not shown) [CBK286893], the viability at 28.5 h, 10 µM stood at 85.2%. `O=S(=O)(c1ccc(Cl)cc1)N1CCN(S(=O)(=O)N2CCOCC2)CC1` [CBK266878]: the viability at 28.5 h, 10 µM is 92.9%. Same read-out and setting: in the case of `O=C(Nc1cnc(-c2cccc(C(F)(F)F)c2)c(-c2ccco2)n1)c1cccnc1` [CBK036714] it was 95.3%; in that of `COc1cc(-c2ccc(/N=C/c3ccccc3O)c(OC)c2)ccc1/N=C/c1ccccc1O` [CBK261089], 101%. In the case of `O=S(=O)(c1ccccc1)N1CCCC1c1cccs1` (stereo not shown) [CBK057002], the viability at 28.5 h, 10 µM is 110%. The same measure, in the same setting: in the case of `CCCCC(=O)/N=C(\N)Nc1nc2ccccc2o1` [CBK287937] it was 87.8%.
